{"source": "PubChem BioAssay (NCI)", "note": "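Values below derive from 48-hour exposures of cells grown in 96-well plates, with endpoints linearly interpolated between the two concentrations bracketing the appropriate inhibition level. TGI: total growth inhibition.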"}
{"tested_on": "SNB-78 CNS", "experiment": "growth of human tumour cells (NCI), 48 h", "units": {"TGI": "µM"}}
{"smiles": "COc1ccc(/C=C/C(=O)C(C)(C)C)cc1OC", "TGI": "> 100"}
{"smiles": "CCOP(=S)(OCC)Oc1ccc2c(c1)OC(=O)C1(Cl)C2(C)C2(Cl)C(=O)Oc3cc(OP(=S)(OCC)OCC)ccc3C12C", "note": "(centres undefined)", "TGI": 49.4}
{"smiles": "CCCCC1CC(c2ccc(Cl)cc2)=NO1", "note": "(centres undefined)", "TGI": "> 100"}
{"tested_on": "SNB-19 CNS", "experiment": "growth of human tumour cells (NCI), 48 h", "units": {"TGI": "µM"}}
{"smiles": "N#Cc1c2c(c(Cl)n3c1nc1ccccc13)CCCC2", "TGI": 14.7}
{"smiles": "COc1ccc(/C=C/C(=O)C(C)(C)C)cc1OC", "TGI": "> 100"}
{"smiles": "CCOP(=S)(OCC)Oc1ccc2c(c1)OC(=O)C1(Cl)C2(C)C2(Cl)C(=O)Oc3cc(OP(=S)(OCC)OCC)ccc3C12C", "note": "(centres undefined)", "TGI": 15.6}
{"smiles": "CCCCC1CC(c2ccc(Cl)cc2)=NO1", "note": "(centres undefined)", "TGI": "> 100"}
{"tested_on": "IGROV1 ovarian", "experiment": "growth of human tumour cells (NCI), 48 h", "units": {"TGI": "µM"}}
{"smiles": "N#Cc1c2c(c(Cl)n3c1nc1ccccc13)CCCC2", "TGI": 8.28}
{"smiles": "O=Cc1c(O)ccc2ccc(O)c(-c3c(O)ccc4ccc(O)cc34)c12", "TGI": "> 100"}
{"smiles": "COc1ccc(/C=C/C(=O)C(C)(C)C)cc1OC", "TGI": "> 100"}
{"smiles": "CCOP(=S)(OCC)Oc1ccc2c(c1)OC(=O)C1(Cl)C2(C)C2(Cl)C(=O)Oc3cc(OP(=S)(OCC)OCC)ccc3C12C", "note": "(centres undefined)", "TGI": 38.7}
{"smiles": "CCCCC1CC(c2ccc(Cl)cc2)=NO1", "note": "(centres undefined)", "TGI": "> 100"}
{"tested_on": "OVCAR-3 ovarian", "experiment": "growth of human tumour cells (NCI), 48 h", "units": {"TGI": "µM"}}
{"smiles": "N#Cc1c2c(c(Cl)n3c1nc1ccccc13)CCCC2", "TGI": 20.1}
{"smiles": "O=Cc1c(O)ccc2ccc(O)c(-c3c(O)ccc4ccc(O)cc34)c12", "TGI": "> 100"}
{"smiles": "COc1ccc(/C=C/C(=O)C(C)(C)C)cc1OC", "TGI": "> 100"}
{"smiles": "CCOP(=S)(OCC)Oc1ccc2c(c1)OC(=O)C1(Cl)C2(C)C2(Cl)C(=O)Oc3cc(OP(=S)(OCC)OCC)ccc3C12C", "note": "(centres undefined)", "TGI": 28.1}
{"smiles": "CCCCC1CC(c2ccc(Cl)cc2)=NO1", "note": "(centres undefined)", "TGI": "> 100"}
{"tested_on": "SK-OV-3 ovarian", "experiment": "growth of human tumour cells (NCI), 48 h", "units": {"TGI": "µM"}}
{"smiles": "N#Cc1c2c(c(Cl)n3c1nc1ccccc13)CCCC2", "TGI": 10.2}
{"smiles": "O=Cc1c(O)ccc2ccc(O)c(-c3c(O)ccc4ccc(O)cc34)c12", "TGI": "> 100"}
{"smiles": "COc1ccc(/C=C/C(=O)C(C)(C)C)cc1OC", "TGI": "> 100"}
{"smiles": "CCCCC1CC(c2ccc(Cl)cc2)=NO1", "note": "(centres undefined)", "TGI": "> 100"}
{"tested_on": "HOP-92 NSCLC", "experiment": "growth of human tumour cells (NCI), 48 h", "units": {"TGI": "µM"}}
{"smiles": "O=Cc1c(O)ccc2ccc(O)c(-c3c(O)ccc4ccc(O)cc34)c12", "TGI": "> 100"}
{"smiles": "CCCCC1CC(c2ccc(Cl)cc2)=NO1", "note": "(centres undefined)", "TGI": "> 100"}
{"tested_on": "RPMI-8226 leukemia", "experiment": "growth of human tumour cells (NCI), 48 h", "units": {"TGI": "µM"}}
{"smiles": "N#Cc1c2c(c(Cl)n3c1nc1ccccc13)CCCC2", "TGI": 7.52}
{"smiles": "O=Cc1c(O)ccc2ccc(O)c(-c3c(O)ccc4ccc(O)cc34)c12", "TGI": "> 100"}
{"smiles": "COc1ccc(/C=C/C(=O)C(C)(C)C)cc1OC", "TGI": "> 100"}
{"smiles": "CCOP(=S)(OCC)Oc1ccc2c(c1)OC(=O)C1(Cl)C2(C)C2(Cl)C(=O)Oc3cc(OP(=S)(OCC)OCC)ccc3C12C", "note": "(centres undefined)", "TGI": 52.8}
{"smiles": "CCCCC1CC(c2ccc(Cl)cc2)=NO1", "note": "(centres undefined)", "TGI": "> 100"}
{"tested_on": "LOX IMVI melanoma", "experiment": "growth of human tumour cells (NCI), 48 h", "units": {"TGI": "µM"}}
{"smiles": "N#Cc1c2c(c(Cl)n3c1nc1ccccc13)CCCC2", "TGI": 4.57}
{"smiles": "O=Cc1c(O)ccc2ccc(O)c(-c3c(O)ccc4ccc(O)cc34)c12", "TGI": "> 100"}
{"smiles": "CCOP(=S)(OCC)Oc1ccc2c(c1)OC(=O)C1(Cl)C2(C)C2(Cl)C(=O)Oc3cc(OP(=S)(OCC)OCC)ccc3C12C", "note": "(centres undefined)", "TGI": 37.5}
{"tested_on": "SF-268 CNS", "experiment": "growth of human tumour cells (NCI), 48 h", "units": {"TGI": "µM"}}
{"smiles": "N#Cc1c2c(c(Cl)n3c1nc1ccccc13)CCCC2", "TGI": 8.83}
{"smiles": "O=Cc1c(O)ccc2ccc(O)c(-c3c(O)ccc4ccc(O)cc34)c12", "TGI": "> 100"}
{"smiles": "COc1ccc(/C=C/C(=O)C(C)(C)C)cc1OC", "TGI": "> 100"}
{"smiles": "CCOP(=S)(OCC)Oc1ccc2c(c1)OC(=O)C1(Cl)C2(C)C2(Cl)C(=O)Oc3cc(OP(=S)(OCC)OCC)ccc3C12C", "note": "(centres undefined)", "TGI": 21}
{"smiles": "CCCCC1CC(c2ccc(Cl)cc2)=NO1", "note": "(centres undefined)", "TGI": "> 100"}
{"tested_on": "SR leukemia", "experiment": "growth of human tumour cells (NCI), 48 h", "units": {"TGI": "µM"}}
{"smiles": "N#Cc1c2c(c(Cl)n3c1nc1ccccc13)CCCC2", "TGI": "> 100"}
{"smiles": "O=Cc1c(O)ccc2ccc(O)c(-c3c(O)ccc4ccc(O)cc34)c12", "TGI": "> 100"}
{"smiles": "CCCCC1CC(c2ccc(Cl)cc2)=NO1", "note": "(centres undefined)", "TGI": "> 100"}
{"tested_on": "CCRF-CEM leukemia", "experiment": "growth of human tumour cells (NCI), 48 h", "units": {"TGI": "µM"}}
{"smiles": "O=Cc1c(O)ccc2ccc(O)c(-c3c(O)ccc4ccc(O)cc34)c12", "TGI": "> 100"}
{"smiles": "COc1ccc(/C=C/C(=O)C(C)(C)C)cc1OC", "TGI": "> 100"}
{"smiles": "CCOP(=S)(OCC)Oc1ccc2c(c1)OC(=O)C1(Cl)C2(C)C2(Cl)C(=O)Oc3cc(OP(=S)(OCC)OCC)ccc3C12C", "note": "(centres undefined)", "TGI": 41.1}
{"smiles": "CCCCC1CC(c2ccc(Cl)cc2)=NO1", "note": "(centres undefined)", "TGI": "> 100"}
{"tested_on": "OVCAR-5 ovarian", "experiment": "growth of human tumour cells (NCI), 48 h", "units": {"TGI": "µM"}}
{"smiles": "N#Cc1c2c(c(Cl)n3c1nc1ccccc13)CCCC2", "TGI": 32.4}
{"smiles": "O=Cc1c(O)ccc2ccc(O)c(-c3c(O)ccc4ccc(O)cc34)c12", "TGI": "> 100"}
{"smiles": "COc1ccc(/C=C/C(=O)C(C)(C)C)cc1OC", "TGI": "> 100"}
{"smiles": "CCOP(=S)(OCC)Oc1ccc2c(c1)OC(=O)C1(Cl)C2(C)C2(Cl)C(=O)Oc3cc(OP(=S)(OCC)OCC)ccc3C12C", "note": "(centres undefined)", "TGI": 33.3}
{"smiles": "CCCCC1CC(c2ccc(Cl)cc2)=NO1", "note": "(centres undefined)", "TGI": "> 100"}
{"tested_on": "HT29 colon", "experiment": "growth of human tumour cells (NCI), 48 h", "units": {"TGI": "µM"}}
{"smiles": "N#Cc1c2c(c(Cl)n3c1nc1ccccc13)CCCC2", "TGI": 2.86}
{"smiles": "O=Cc1c(O)ccc2ccc(O)c(-c3c(O)ccc4ccc(O)cc34)c12", "TGI": "> 100"}
{"smiles": "COc1ccc(/C=C/C(=O)C(C)(C)C)cc1OC", "TGI": "> 100"}
{"smiles": "CCOP(=S)(OCC)Oc1ccc2c(c1)OC(=O)C1(Cl)C2(C)C2(Cl)C(=O)Oc3cc(OP(=S)(OCC)OCC)ccc3C12C", "note": "(centres undefined)", "TGI": 29.9}
{"smiles": "CCCCC1CC(c2ccc(Cl)cc2)=NO1", "note": "(centres undefined)", "TGI": "> 100"}
{"tested_on": "SW-620 colon", "experiment": "growth of human tumour cells (NCI), 48 h", "units": {"TGI": "µM"}}
{"smiles": "N#Cc1c2c(c(Cl)n3c1nc1ccccc13)CCCC2", "TGI": 4.43}
{"smiles": "O=Cc1c(O)ccc2ccc(O)c(-c3c(O)ccc4ccc(O)cc34)c12", "TGI": "> 100"}
{"smiles": "COc1ccc(/C=C/C(=O)C(C)(C)C)cc1OC", "TGI": "> 100"}
{"smiles": "CCOP(=S)(OCC)Oc1ccc2c(c1)OC(=O)C1(Cl)C2(C)C2(Cl)C(=O)Oc3cc(OP(=S)(OCC)OCC)ccc3C12C", "note": "(centres undefined)", "TGI": 33.3}
{"smiles": "CCCCC1CC(c2ccc(Cl)cc2)=NO1", "note": "(centres undefined)", "TGI": "> 100"}
{"tested_on": "OVCAR-8 ovarian", "experiment": "growth of human tumour cells (NCI), 48 h", "units": {"TGI": "µM"}}
{"smiles": "N#Cc1c2c(c(Cl)n3c1nc1ccccc13)CCCC2", "TGI": 5.89}
{"smiles": "O=Cc1c(O)ccc2ccc(O)c(-c3c(O)ccc4ccc(O)cc34)c12", "TGI": "> 100"}
{"smiles": "COc1ccc(/C=C/C(=O)C(C)(C)C)cc1OC", "TGI": "> 100"}
{"smiles": "CCOP(=S)(OCC)Oc1ccc2c(c1)OC(=O)C1(Cl)C2(C)C2(Cl)C(=O)Oc3cc(OP(=S)(OCC)OCC)ccc3C12C", "note": "(centres undefined)", "TGI": 37.2}
{"smiles": "CCCCC1CC(c2ccc(Cl)cc2)=NO1", "note": "(centres undefined)", "TGI": "> 100"}
{"tested_on": "HCT-15 colon", "experiment": "growth of human tumour cells (NCI), 48 h", "units": {"TGI": "µM"}}
{"smiles": "N#Cc1c2c(c(Cl)n3c1nc1ccccc13)CCCC2", "TGI": 10.6}
